# Data from ChEMBL document CHEMBL1147302, “Isolation and characterization of an antimalarial agent of the neem tree Azadirachta indica” (J Nat Prod, 1989).
# Legend:
# Plasmodium falciparum [1] = assay: Antimalarial activity against Plasmodium falciparum after 48 hrs by [3H]hypoxanthine uptake; type: functional, organism-based
# Plasmodium falciparum [2] = assay: Antimalarial activity against Plasmodium falciparum after 96 hrs by [3H]hypoxanthine uptake; type: functional, organism-based
structure (smiles),measurement,setting,value
CC(=O)O[C@@H]1C[C@H]2C(C)(C)C(=O)C=C[C@]2(C)[C@H]2CC[C@@]3(C)[C@H](c4ccoc4)OC(=O)[C@H]4O[C@]43[C@@]21C [GEDUNIN],IC50,Plasmodium falciparum [1],1000 nM
same,IC50,Plasmodium falciparum [2],300 nM
